Source: patent US7901498B2, “Trisazo compound, ink composition, printing method and colored product” (Nippon Kayaku Kabushiki Kaisha, priority 2007, dated 2011)

Key:
[1] = Ozone gas fastness test of inkjet-printed images (coloring matter residual rate); assay type: physicochemical; conditions: 24 hours, ozone 10 ppm; for Ozone gas fastness: 60% RH, 24° C.
Description: (§1) The components described below were mixed to obtain a black ink composition of the present invention, and then foreign substances were filtered off using a 0.45 μm membrane filter. Hereinafter, the obtained ink composition was referred to as “ink”.
(§2) In addition, ion-exchanged water was used as water. In ink preparation, the pH of ink was adjusted to pH 7 to 9 with sodium hydroxide and after that, ion-exchanged water was added to make the total amount 100 parts.
(§3) Using each ink obtained in the above manner, inkjet printing was performed on three kinds of information recording sheet (inkjet special paper), glossy paper 1 [trade name: Professional Photopaper PR-101, manufactured by Canon Inc.], glossy paper 2 [trade name: Photo Paper CRISPIA (highly glossy), manufactured by Seiko-Epson Corporation], glossy paper 3 [trade name: Advanced Photo Paper (glossy), manufactured by Hewlett-Packard Development Company] by an inkjet printer (trade name: PIXUS® iP4100) manufactured by Canon Inc.
(§4) In printing, an image pattern was made so that several gradations in reflection density were obtained, and black printed matter was obtained.
(§5) Using a colorimeter (trade name: SpectroEye®) manufactured by GRETAG-MACBETH, change in printed image density was measured by measuring, after the test, the gradation part where the reflection density, D value, was nearest to 1.0 on each printed image before the test.
Using an ozone weatherometer manufactured by Suga Test Instruments Co., Ltd., each printed image was left for 24 hours under the conditions of an ozone concentration of 10 ppm, a humidity of 60% RH and a temperature of 24° C. After completion of the test, each printed image was measured by the above colorimeter and the coloring matter residual rate was calculated from the formula (reflection density after test/reflection density before test)×100 (%). The test results are evaluated according to the following criteria. • ◯: Residual rate is 70% or more. • Δ: Residual rate is 60% or more and less than 70%. • ×: Residual rate is less than 60%. 2) Light Fastness Test

[2] = Light fastness test of inkjet-printed images, xenon weatherometer (coloring matter residual rate); assay type: physicochemical; conditions: for Light fastness: 96 hours, illuminance 100,000 lux, 60% RH, 24° C.; for coloring matter residual rate, light fastness test: 96 hours xenon
Description: as §1, §2, §3, §4, §5
Using a low temperature xenon weatherometer (trade name: XL75) manufactured by Suga Test Instruments Co., Ltd., each printed image described above was irradiated for 96 hours under the conditions of a luxilluminance of 100,000, a humidity of 60% RH and a temperature of 24° C. and then measured using the above colorimeter, and the coloring matter residual rate of each image was calculated from the formula (reflection density after test/reflection density before test)×100 (%). The test results are evaluated according to the following criteria. • ◯: Residual rate is 85% or more. • Δ: Residual rate is 80% or more and less than 85%. • ×: Residual rate is less than 80%.

[3] = Glossy paper 1 (Professional Photopaper PR-101, Canon)
[4] = Glossy paper 2 (Photo Paper CRISPIA, Seiko-Epson)
[5] = Glossy paper 3 (Advanced Photo Paper, Hewlett-Packard)

Row | SMILES | Ozone gas fastness [1, 3] | Ozone gas fastness [1, 4] | Ozone gas fastness [1, 5] | Light fastness [2, 3] | Light fastness [2, 4] | Light fastness [2, 5] | coloring matter residual rate, ozone gas fastness test ([1]; on any glossy paper (1, 2, 3)) | coloring matter residual rate, light fastness test ([2]; glossy paper 1) | coloring matter residual rate, light fastness test ([2]; glossy paper 2)
1 | CS(=O)(=O)O.Cc1cc(N=Nc2c(S(=O)(=O)O)cc3c(S(=O)(=O)O)c(N=Nc4c(C)c(C#N)c5nc6ccccc6n5c4O)ccc3c2O)c(OCCCS(=O)(=O)O)cc1N=Nc1nc2c(S(=O)(=O)O)cc(S(C)(=O)=O)cc2s1 [Example 14] | ◯ (Residual rate is 70% or more.) | ◯ (Residual rate is 70% or more.) | ◯ (Residual rate is 70% or more.) | ◯ (Residual rate is 85% or more.) | ◯ (Residual rate is 85% or more.) | ◯ (Residual rate is 85% or more.) | – | – | –
2 | CS(=O)(=O)O.Cc1cc(N=Nc2c(S(=O)(=O)O)cc3c(S(=O)(=O)O)c(N=Nc4c(C)c(C#N)c5nc6ccccc6n5c4O)ccc3c2O)c(OCCCS(=O)(=O)O)cc1N=Nc1nnc(SCCS(=O)(=O)O)s1 [Example 10] | ◯ (Residual rate is 70% or more.) | ◯ (Residual rate is 70% or more.) | ◯ (Residual rate is 70% or more.) | ◯ (Residual rate is 85% or more.) | Δ (Residual rate is 80% or more and less than 85%.) | ◯ (Residual rate is 85% or more.) | – | – | –
3 | O=C(O)c1cc(S(=O)(=O)O)ccc1N=Nc1cc(OCCO)c(N=Nc2c(S(=O)(=O)O)cc3c(S(=O)(=O)O)c(N=Nc4c(C(=O)O)nn(-c5ccc(S(=O)(=O)O)cc5)c4O)ccc3c2O)cc1OCCO [Comparative Example 1, reference compound] | – | – | – | – | – | Δ (Residual rate is 80% or more and less than 85%.) | less than 60% | less than 80% | less than 80%
4 | CS(=O)(=O)O.Cc1cc(N=Nc2c(S(=O)(=O)O)cc3c(S(=O)(=O)O)c(N=Nc4c(C)c(C#N)c5nc6ccccc6n5c4O)ccc3c2O)c(OCCCS(=O)(=O)O)cc1N=Nc1nc2c(S(=O)(=O)O)cc(S(=O)(=O)O)cc2s1 [Example 13] | ◯ (Residual rate is 70% or more.) | ◯ (Residual rate is 70% or more.) | ◯ (Residual rate is 70% or more.) | Δ (Residual rate is 80% or more and less than 85%.) | ◯ (Residual rate is 85% or more.) | ◯ (Residual rate is 85% or more.) | – | – | –
